According to ChEMBL document CHEMBL3580593, “Parthenolide prodrug LC-1 slows growth of intracranial glioma” (Bioorg Med Chem Lett, 2015):
Values belong to the compound of their own block, whether it stands above or below them. Activity calls are given as the source filed them. The rule behind the calls is not given here.

Legend:
Brain [1] = test: Drug uptake in CD1 mouse perfused brain assessed as elimination product parthenolide at 100 mg/kg, po after 4 hrs by LC-MS/MS analysis; assay type: ADME, organism-based; conditions: in vivo
GL261 [2] = test: Antitumor activity in mouse GL261-GFP-Luc cells allografted in C57BL/6J mouse assessed as increase in mouse survival time at 100 mg/kg, po relative to control; assay type: functional, organism-based
Mus musculus [3] = test: Toxicity in C57BL/6 mouse assessed as platelet count at 100 mg/kg, po formulated in HP-beta CD; assay type: organism-based; conditions: in vivo
[4] = Cytotoxicity against human GBM6 cells assessed as cell viability after 48 hrs by Alamar Blue assay; assay type: functional, cell-based; conditions: GBM6, 48 h
[5] = Ratio of drug level in brain to plasma in Wistar rat at 100 mg/kg, po after 3 hrs by UPLC-MS/MS analysis; assay type: ADME, organism-based; conditions: read-out: BPR
GL261 [6] = test: Antitumor activity in mouse GL261-GFP-Luc cells allografted in C57BL/6J mouse assessed as delay in tumor growth at 100 mg/kg, po relative to control; assay type: functional, organism-based
U-87 MG = test: Cytotoxicity against human U87MG cells assessed as cell viability after 48 hrs by Alamar Blue assay; assay type: functional, cell-based, U-87MG ATCC
[7] = Drug uptake in CD1 mouse perfused brain at 100 mg/kg, po after 4 hrs by LC-MS/MS analysis; assay type: ADME, organism-based; conditions: read-out: Drug uptake
Brain [8] = test: Drug uptake in CD1 mouse perfused brain assessed as elimination product parthenolide at 100 mg/kg, po after 1 hr by LC-MS/MS analysis; assay type: ADME, organism-based; conditions: in vivo
[9] = Drug uptake in CD1 mouse plasma at 100 mg/kg, po after 1 hr by LC-MS/MS analysis; assay type: ADME, organism-based
Mus musculus [10] = test: Toxicity in C57BL/6 mouse assessed as WBC count at 100 mg/kg, po formulated in HP-beta CD; assay type: organism-based; conditions: in vivo
[11] = Drug uptake in CD1 mouse plasma at 100 mg/kg, po after 4 hrs by LC-MS/MS analysis; assay type: ADME, organism-based
Nucleic Acid = test: Ratio of drug level in brain to plasma in CD1 mouse assessed as elimination product parthenolide at 100 mg/kg, po after 4 hrs by LC-MS/MS analysis; assay type: ADME, organism-based
[12] = Drug uptake in CD1 mouse perfused brain at 100 mg/kg, po after 1 hr by LC-MS/MS analysis; assay type: ADME, organism-based; conditions: read-out: Drug uptake
[13] = Ratio of drug level in brain to plasma in Wistar rat at 100 mg/kg, po after 30 mins by UPLC-MS/MS analysis; assay type: ADME, organism-based; conditions: read-out: BPR
Plasma [14] = test: Drug uptake in CD1 mouse plasma assessed as elimination product parthenolide at 100 mg/kg, po after 1 hr by LC-MS/MS analysis; assay type: ADME, organism-based; conditions: in vivo
Mus musculus [15] = test: Toxicity in C57BL/6 mouse assessed as hemoglobin level at 100 mg/kg, po formulated in HP-beta CD; assay type: organism-based; conditions: in vivo
[16] = Cytotoxicity against […] GL261-GFP-Luc cells assessed as cell viability after 48 hrs by Alamar Blue assay; assay type: functional, cell-based; conditions: Mus musculus, GL261, 48 h
[17] = Ratio of drug level in brain to plasma in CD1 mouse at 100 mg/kg, po after 1 hr by LC-MS/MS analysis; assay type: ADME, organism-based; conditions: read-out: BPR
Mus musculus [18] = test: Toxicity in C57BL/6 mouse assessed as RBC count at 100 mg/kg, po formulated in HP-beta CD; assay type: organism-based; conditions: in vivo
[19] = Ratio of drug level in brain to plasma in CD1 mouse at 100 mg/kg, po after 4 hrs by LC-MS/MS analysis; assay type: ADME, organism-based; conditions: read-out: BPR
[20] = Half life in mouse serum; assay type: ADME, cell-free
Plasma [21] = test: Drug uptake in CD1 mouse plasma assessed as elimination product parthenolide at 100 mg/kg, po after 4 hrs by LC-MS/MS analysis; assay type: ADME, organism-based; conditions: in vivo

Drug uptake (Brain [1]): 113 ng/g | Kp at 3 h [5]: 1.91 | concentration at 4 h [7]: 342 ng/g | Drug uptake (Brain [8]): 2402 ng/g | concentration at 1 h [9]: 2960 ng/mL | concentration at 4 h [11]: 115 ng/mL | BPR (Nucleic Acid): 0.5 | concentration at 1 h [12]: 6250 ng/g | Kp at 0.5 h [13]: 1.84 | Cp (Plasma [14]): 2142 ng/mL | Kp at 1 h [17]: 2.1 | Kp at 4 h [19]: 3 | half-life [20]: 37.8 min | Cp (Plasma [21]): 211 ng/mL
Compound: C/C1=C\CC[C@@]2(C)O[C@H]2[C@H]2OC(=O)[C@@H](CN(C)C)[C@@H]2CC1
Activity (GL261 [2]): Active | Activity (Mus musculus [3]): Non-toxic | IC50 [4]: 3.5 µM | Activity (GL261 [6]): Active | IC50 (U-87 MG): 8.8 µM | Activity (Mus musculus [10]): Non-toxic | Activity (Mus musculus [15]): Non-toxic | IC50 [16]: 6.9 µM | Activity (Mus musculus [18]): Non-toxic

Compound: C=C1C(=O)O[C@@H]2C3O[C@]3(C)CC/C=C(\C)CC[C@@H]12 (stereo partly specified)
IC50 [4]: 3.4 µM | IC50 (U-87 MG): 8.8 µM | IC50 [16]: 7.6 µM
